PubChem BioAssay (NCI)
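These data come from cells grown in 96-well plates and exposed to compound for 48 hours at five concentrations. At the GI50, growth is halved. The concentration for full growth arrest is given as TGI.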

Legend:
Assay in all cases: growth of human tumour cells (NCI), 48 h
[1] = test system: IGROV1 ovarian
[2] = test system: SK-MEL-5 melanoma
[3] = test system: OVCAR-5 ovarian
[4] = test system: A498 renal
[5] = test system: UACC-62 melanoma
[6] = test system: MALME-3M melanoma
[7] = test system: HCT-15 colon
[8] = test system: HL-60(TB) leukemia
[9] = test system: NCI/ADR-RES ovarian
[10] = test system: SR leukemia

SMILES	TGI [1] [µM]	TGI [2] [µM]	TGI [3] [µM]	TGI [4] [µM]	TGI [5] [µM]	TGI [6] [µM]	TGI [7] [µM]	TGI [8] [µM]	GI50 [1] [µM]	GI50 [2] [µM]	GI50 [9] [µM]	TGI [9] [µM]	GI50 [8] [µM]	GI50 [3] [µM]	GI50 [4] [µM]	GI50 [5] [µM]	GI50 [6] [µM]	GI50 [7] [µM]	TGI [10] [µM]
Cc1cc2c(=O)cc(-c3ccc(C(=O)O)cc3)oc2c(C(N)=O)c1C	> 100	> 100	> 100	> 100	> 100	> 100	> 100	–	–	–	–	–	–	–	–	–	–	–	–
CN1C[C@@H]2CC(=O)CC[C@@H]2C[C@H]1C#N	> 100	> 100	> 100	> 100	> 100	> 100	> 100	> 100	–	–	–	–	–	–	–	–	–	–	–
COc1cc2cc(Oc3ccc(NC(=O)Nc4ccc(F)c(C(F)(F)F)c4)cc3)c(C)nc2cc1OCCN1CCOCC1	19.5	2.36	21.7	10.2	4.24	3.24	4.19	6.14	2.69	1.14	2.56	12.1	2.38	5.11	2.8	1.36	1.57	1.73	–
CCC(CO)COC(=O)/C=C/C(=O)OCC(CC)CO (centres undefined)	> 100	> 100	> 100	> 100	> 100	> 100	> 100	45.5	–	–	–	–	–	–	–	–	–	–	> 95.6
O=C(O)c1ccc(NCn2nc(-c3ccccc3O)oc2=S)cc1O	> 100	> 100	> 100	–	> 100	–	92.6	> 100	> 100	> 100	> 100	> 100	> 100	> 100	–	39.8	–	32	–
O=[N+]([O-])c1cccc(C=NC23CC4CC(CC(C4)C2)C3)c1	> 100	> 100	> 100	> 100	> 100	> 100	> 100	65.6	–	–	–	–	–	–	–	–	–	–	–
CN(CC(=O)O)S(=O)(=O)c1ccc(Cl)cc1	> 100	> 100	> 100	> 100	> 100	> 100	> 100	> 100	–	–	–	–	–	–	–	–	–	–	–
S=c1sc2sc(=S)sc2s1	> 100	> 100	40.2	48.2	> 100	> 100	> 100	23.3	–	–	–	–	–	–	–	–	–	–	> 100
O=C([CH-]C(=O)c1ccccc1)c1ccccc1.O=C([CH-]C(=O)c1ccccc1)c1ccccc1.[CH2-]CCC.[CH2-]CCC.[Sn+4]	2.79	1.21	3.51	1.5	1.83	1.35	2.14	0.606	1.21	0.25	–	–	0.169	2.06	0.369	0.558	0.271	0.636	–
O=C(O)c1cc(C(=O)C(=O)c2cc(C(=O)O)c(O)c3ccccc23)c2ccccc2c1O	> 100	> 100	> 100	> 100	> 100	> 100	> 100	–	–	–	–	> 100	–	–	–	–	–	–	–
CC12OC(C(=O)C13CC3)C1C(=O)c3cccc(O)c3C(=O)C12 (centres undefined)	> 100	> 100	> 66.3	30.4	37.2	14	> 54.8	0.539	12.2	6.79	6.9	25.3	–	24.5	16.3	5.23	5.31	9.82	–
S=C1NC(c2ccccc2)=NC(Cc2ccccc2)(c2ccccc2)N1c1ccccc1 (centres undefined)	> 100	> 100	> 100	> 100	> 100	> 100	> 100	> 100	–	–	–	–	–	–	–	–	–	–	> 100
COC(=O)CCC(=O)C(CC(=O)OC)C(=O)CCC(=O)NCCc1ccccc1 (centres undefined)	> 100	> 100	> 100	> 100	> 100	> 100	> 100	> 100	–	–	–	–	–	–	–	–	–	–	> 100
COC(=O)C(=O)C(C(=O)C(=O)Nc1ccccc1C(N)=O)c1nc2ccc([N+](=O)[O-])cc2[nH]c1=O (centres undefined)	> 100	> 100	> 100	> 100	> 100	> 100	> 100	> 100	–	–	–	–	–	–	–	–	–	–	> 100
Cn1cnc([N+](=O)[O-])c1Sc1nccn1-c1ccccc1	> 100	> 100	> 100	> 100	> 100	62.8	–	–	–	–	–	–	–	–	–	–	–	–	62.3
CCOC(=O)Cc1csc(Nc2nc(O)c(C3=c4ccccc4=NC3=O)s2)n1	69	> 100	> 100	77.7	34.6	78.4	> 100	–	27.2	28.5	55.6	> 100	–	43.6	31.6	15.7	25.5	27.4	–
N#CCC(=O)N/N=C(/C(=O)Nc1ccccc1)C1C(=O)N(c2ccccc2)N=C1N (centres undefined)	> 100	> 100	> 100	> 100	> 100	> 100	> 100	> 100	–	–	–	–	–	–	–	–	–	–	> 100
Cc1cc2c(=O)cc(-c3ccc(Cl)c(Cl)c3)oc2c(C(=O)O)c1C	> 100	> 100	> 100	–	> 100	> 100	> 100	–	–	–	–	–	–	–	–	–	–	–	–
CN1C(=O)CNS1(=O)=O	> 100	> 100	> 100	> 100	> 100	> 100	> 100	> 100	–	–	–	–	–	–	–	–	–	–	> 100
CCOc1ccc(N=C2NC(=O)C(CC(=O)Nc3ccc(Cl)cc3Cl)S2)cc1 (centres undefined)	> 100	> 100	> 100	> 100	> 100	> 100	> 100	–	–	–	–	–	–	–	–	–	–	–	–
Cc1ccccc1C(C#N)/C(=N/NC(N)=S)C(=O)Nc1c(C)cccc1C (centres undefined)	> 100	> 100	> 100	–	> 100	> 100	–	> 100	–	–	–	–	–	–	–	–	–	–	–
